{"source": "patent US20240358693A1", "about": "“METHODS OF TREATING PAIN” (Aisa Pharma, Inc., priority 2023, published 2024)", "system": "participants with SSc-RP", "assay": "Scleroderma Health Assessment Questionnaire (SHAQ): disability indices and visual analog scales", "type": "in vivo, human", "source_text": "The standard, validated, patient reported outcome measures tool for SSc patients, the Scleroderma Health Assessment Questionnaire (SHAQ), will be used to assess the participant qualify of life. Details are attached in the Appendix. The participant quality of life will be scored, and a disability index calculated for each questionnaire completed by the patient at Screening and each in-clinic visit. The absolute change in participant quality of life from baseline to the end of each dosing period will be calculated similar to frequency data as before.\nThe SHAQ includes a Raynaud's VAS, which will be reported at screening and each in-clinic visit. The absolute change in Raynaud-VAS, assessed by the participants response to the SHAQ question ‘In the past 7 days, how much have your Raynaud's interfered with your daily activities?’ at baseline and the end of each dosing period will be calculated similar to frequency data as before.\nThe SHAQ is used to calculate a Disability Index to assess the participant qualify of life. The eight categories assessed by the Disability Index are 1) dressing and grooming, 2) arising, 3) eating, 4) walking, 5) hygiene, 6) reach, 7) grip, and 8) common daily activities. For each of these categories, patients report the amount of difficulty they have in performing two or three specific activities.\nThere are four possible responses for the Disability Index questions: • Without any difficulty=0 • With some difficulty=1 • With much difficulty=2 • Unable to do=3. • The highest score reported by the patient for any component question of the eight categories determines the score for that category. • If a component question is left blank or the response is too ambiguous to assign a score, then the score for that category is determined by the remaining completed question(s). • If all component questions are blank or if more than one answer is given, then follow up with the respondent is required. • If the respondent's mark is between the response columns, then move it to the closest one. If it's directly between the two, move it to the higher one.\nEach of the disability items on the SHAQ has a companion aids/devices variable that is used to record what type(s) of assistance, if any, the participant uses for his/her usual activities. These variables (see below) are coded as follows: • 0=No assistance is needed. • 1=A special device is used by the patient in his/her usual activities. • 2=The patient usually needs help from another person. • 3=The patient usually needs BOTH a special device AND help from another person.\nThe scoring variables and scoring rules permit the computation of two disability indices, the Standard Disability Index and the Alternative Disability Index.\nThis question results in a new set of category scores that are computed by adjusting the score for each category, if necessary, based on the patient's use of an aid or device or assistance for that category. If either devices and/or help from another person are checked for a category, the score is set to “2”, unless the score is already “3” (i.e., scores of “0” or “1” are increased to “2”). For example, if the highest score for the dressing category is “1”, and the patient says they use a device for dressing, the computed category score would be “2”. The sum of the computed categories scores is then calculated and divided by the number of categories answered. This gives a score in the 0 to 3 range.\nThe aid and device variables are not used to calculate the alternative disability index; it is calculated by adding the scores for each of the categories and dividing by the number of categories answered. This gives a score in the 0 to 3 range.\nThe standard, validated, patient reported outcome measures tool for SSc patients, the SHAQ, was collected at the time points specified in the study schedules (FIG. 2 and FIGS. 4A and 4B) to assess the participant's quality of life. The SHAQ included a Raynaud's VAS that will also be reported separately.", "key": {"[1]": {"conditions": "Cilnidipine 20 mg (N = 3), patients with diagnosis of SSc, sensitivity analysis, Modified ITT, Part A"}, "[2]": {"conditions": "Cilnidipine 20 mg (n = 3), Table R"}, "[3]": {"conditions": "Cilnidipine 20 mg (n = 3), mITT population"}, "[4]": {"conditions": "Cilnidipine 20 mg, Day 12, PP Population Part A, SSc patients"}, "[5]": {"conditions": "Cilnidipine 20 mg, Day 12, PP Population, Part A"}, "[6]": {"conditions": "Cilnidipine 20 mg, PP Population Part A, SSc patients"}}, "data": [{"smiles": "COCCOC(=O)C1=C(C)NC(C)=C(C(=O)OC/C=C/c2ccccc2)C1c1cccc([N+](=O)[O-])c1", "note": "(centres unmarked) [Cilnidipine, cilnidipine]", "values": [{"measurement": "SHAQ Standard Disability Index: Change from Baseline, Median", "setting": "[1]", "result": "−0.125"}, {"measurement": "SHAQ Standard Disability Index: Day 12, Mean", "setting": "[1]", "result": 0.125}, {"measurement": "SHAQ Standard Disability Index: Day 12, Median", "setting": "[1]", "result": 0.125}, {"measurement": "SHAQ Standard Disability Index: Percent Change from Baseline, Mean", "setting": "[1]", "result": "−50.00", "unit": "%"}, {"measurement": "SHAQ Standard Disability Index: Percent Change from Baseline, Median", "setting": "[1]", "result": "−50.00", "unit": "%"}, {"measurement": "Alternative disability index, improvement", "setting": "[2]", "result": 42, "unit": "% improvement"}, {"measurement": "Standard disability index, improvement", "setting": "[2]", "result": 50, "unit": "% improvement"}, {"measurement": "VAS - Breathing problems, improvement", "setting": "[2]", "result": 75, "unit": "% improvement*"}, {"measurement": "VAS - Raynaud's, improvement", "setting": "[2]", "result": 55, "unit": "% improvement"}, {"measurement": "VAS Overall Disease Severity, improvement", "setting": "[2]", "result": 63, "unit": "% improvement"}, {"measurement": "VAS- PAIN, improvement", "setting": "Cilnidipine 20 mg (n = 3), Table R, baseline 2.17 on a 0-10 VAS", "result": 53, "unit": "% improvement*"}, {"measurement": "SHAQ % change VAS Raynauds", "setting": "[3]", "result": "−49", "unit": "%"}, {"measurement": "SHAQ % change in Alternative Disability Index", "setting": "[3]", "result": "−42", "unit": "%"}, {"measurement": "SHAQ % change in Pain", "setting": "[3]", "result": "−53", "unit": "%"}, {"measurement": "SHAQ % change in Standard Disability Index", "setting": "[3]", "result": "−50", "unit": "%"}, {"measurement": "SHAQ % change overall SSc Disease Severity", "setting": "[3]", "result": "−63", "unit": "%"}, {"measurement": "SHAQ % improvement in Breathing (median)", "setting": "[3]", "result": 67, "unit": "%"}, {"measurement": "SHAQ % improvement in VAS Digital Ulcers", "setting": "[3]", "result": 35, "unit": "%"}, {"measurement": "SHAQ Visual Analogue Scale - Breathing Problems, Change from Baseline, Mean", "setting": "[4]", "result": "−0.475"}, {"measurement": "SHAQ Visual Analogue Scale - Breathing Problems, Change from Baseline, Median", "setting": "[4]", "result": "−0.250"}, {"measurement": "SHAQ Visual Analogue Scale - Breathing Problems, Percent Change from Baseline, Mean", "setting": "[4]", "result": 3.73, "unit": "%"}, {"measurement": "SHAQ Visual Analogue Scale - Breathing Problems, Percent Change from Baseline, Median", "setting": "[4]", "result": "−17.54", "unit": "%"}, {"measurement": "SHAQ Visual Analogue Scale - Finger Ulcers, Change from Baseline, Mean", "setting": "[4]", "result": "−0.933"}, {"measurement": "SHAQ Visual Analogue Scale - Finger Ulcers, Change from Baseline, Median", "setting": "[4]", "result": 0.000}, {"measurement": "SHAQ Visual Analogue Scale - Finger Ulcers, Percent Change from Baseline, Mean", "setting": "[4]", "result": 35.29, "unit": "%"}, {"measurement": "SHAQ Visual Analogue Scale - Finger Ulcers, Percent Change from Baseline, Median", "setting": "[4]", "result": 35.29, "unit": "%"}, {"measurement": "SHAQ Visual Analogue Scale - Intestinal Problems, Change from Baseline, Mean", "setting": "[4]", "result": 0.150}, {"measurement": "SHAQ Visual Analogue Scale - Intestinal Problems, Change from Baseline, Median", "setting": "[4]", "result": 0.150}, {"measurement": "SHAQ Visual Analogue Scale - Intestinal Problems, Percent Change from Baseline, Mean", "setting": "[4]", "result": "−10.00", "unit": "%"}, {"measurement": "SHAQ Visual Analogue Scale - Intestinal Problems, Percent Change from Baseline, Median", "setting": "[4]", "result": 30.00, "unit": "%"}, {"measurement": "SHAQ Visual Analogue Scale - Overall Disease Severity, Change from Baseline, Mean", "setting": "[4]", "result": "−2.000"}, {"measurement": "SHAQ Visual Analogue Scale - Overall Disease Severity, Change from Baseline, Median", "setting": "[4]", "result": "−1.700"}, {"measurement": "SHAQ Visual Analogue Scale - Overall Disease Severity, Percent Change from Baseline, Mean", "setting": "[4]", "result": "−64.20", "unit": "%"}, {"measurement": "SHAQ Visual Analogue Scale - Overall Disease Severity, Percent Change from Baseline, Median", "setting": "[4]", "result": "−64.44", "unit": "%"}, {"measurement": "SHAQ Visual Analogue Scale - Pain, Change from Baseline, Mean", "setting": "[4]", "result": "−0.650"}, {"measurement": "SHAQ Visual Analogue Scale - Pain, Change from Baseline, Median", "setting": "[4]", "result": "−0.650"}, {"measurement": "SHAQ Visual Analogue Scale - Pain, Percent Change from Baseline, Mean", "setting": "[4]", "result": "−34.56", "unit": "%"}, {"measurement": "SHAQ Visual Analogue Scale - Pain, Percent Change from Baseline, Median", "setting": "[4]", "result": "−51.06", "unit": "%"}, {"measurement": "SHAQ Visual Analogue Scale - Raynaud's, Change from Baseline, Mean", "setting": "[4]", "result": "−1.200"}, {"measurement": "SHAQ Visual Analogue Scale - Raynaud's, Change from Baseline, Median", "setting": "[4]", "result": "−1.050"}, {"measurement": "SHAQ Visual Analogue Scale - Raynaud's, Percent Change from Baseline, Mean", "setting": "[4]", "result": "−41.11", "unit": "%"}, {"measurement": "SHAQ Visual Analogue Scale - Raynaud's, Percent Change from Baseline, Median", "setting": "[4]", "result": "−38.67", "unit": "%"}, {"measurement": "SHAQ Alternative Disability Index: Change from Baseline, Mean", "setting": "[5]", "result": 0.000}, {"measurement": "SHAQ Alternative Disability Index: Change from Baseline, Median", "setting": "[5]", "result": "−0.063"}, {"measurement": "SHAQ Alternative Disability Index: In-Clinic Visit (Day 12), Mean", "setting": "[5]", "result": 0.219}, {"measurement": "SHAQ Alternative Disability Index: In-Clinic Visit (Day 12), Median", "setting": "[5]", "result": 0.188}, {"measurement": "SHAQ Alternative Disability Index: Percent Change from Baseline, Mean", "setting": "[5]", "result": 5.56, "unit": "%"}, {"measurement": "SHAQ Alternative Disability Index: Percent Change from Baseline, Median", "setting": "[5]", "result": "−33.33", "unit": "%"}, {"measurement": "SHAQ Standard Disability Index: Change from Baseline, Mean", "setting": "[5]", "result": "−0.063"}, {"measurement": "SHAQ Standard Disability Index: Change from Baseline, Median", "setting": "[5]", "result": "−0.063"}, {"measurement": "SHAQ Standard Disability Index: In-Clinic Visit (Day 12), Mean", "setting": "[5]", "result": 0.281}, {"measurement": "SHAQ Standard Disability Index: In-Clinic Visit (Day 12), Median", "setting": "[5]", "result": 0.188}, {"measurement": "SHAQ Standard Disability Index: Percent Change from Baseline, Mean", "setting": "[5]", "result": "−26.67", "unit": "%"}, {"measurement": "SHAQ Standard Disability Index: Percent Change from Baseline, Median", "setting": "[5]", "result": "−33.33", "unit": "%"}, {"measurement": "SHAQ Visual Analogue Scale - Pain: Change from Baseline, Mean", "setting": "[5]", "result": "−0.650"}, {"measurement": "SHAQ Visual Analogue Scale - Pain: Change from Baseline, Median", "setting": "[5]", "result": "−0.650"}, {"measurement": "SHAQ Visual Analogue Scale - Pain: In-Clinic Visit (Day 12), Mean", "setting": "[5]", "result": 1.875}, {"measurement": "SHAQ Visual Analogue Scale - Pain: In-Clinic Visit (Day 12), Median", "setting": "[5]", "result": 1.400}, {"measurement": "SHAQ Visual Analogue Scale - Pain: Percent Change from Baseline, Mean", "setting": "[5]", "result": "−34.56", "unit": "%"}, {"measurement": "SHAQ Visual Analogue Scale - Pain: Percent Change from Baseline, Median", "setting": "[5]", "result": "−51.06", "unit": "%"}, {"measurement": "SHAQ Visual Analogue Scale - Breathing Problems, In-Clinic Visit (Day 12), Mean", "setting": "[6]", "result": 0.850}, {"measurement": "SHAQ Visual Analogue Scale - Breathing Problems, In-Clinic Visit (Day 12), Median", "setting": "[6]", "result": 0.450}]}]}
